The test system of one data set is HL-60. The experiment in a line: Growth inhibition of human HL60 cells at 50 uM after 24 to 72 hrs by trypan blue staining based assay relative to control. The class given is functional. The following applies: read-out: GI.
The next data set has as its system HeLa. Kind of data set: Growth inhibition of human HeLa cells at 50 uM after 24 to 72 hrs by trypan blue staining based assay relative to control. The class given is functional. To be noted: read-out: GI.
The next data set has as its system B16. Kind of data set: Growth inhibition of mouse B16 cells at 50 uM after 24 to 72 hrs by trypan blue staining based assay relative to control. It is filed as functional. The following applies: read-out: GI.
Data set [1] in a line: Growth inhibition of mouse NIH/3T3 cells at 50 uM after 24 to 72 hrs by trypan blue staining based assay relative to control. To be noted: read-out: GI. The class given is cell-based, NIH3T3.
Data set [2] concerns Staphylococcus aureus. The experiment in a line: Antimicrobial activity against methicillin-resistant Staphylococcus aureus incubated overnight by broth microdilution method. It is filed as functional. (Dilution methods test growth across graded concentrations, often in twofold steps.)
Another data set has as its system Klebsiella pneumoniae. The experiment in a line: Antimicrobial activity against Klebsiella pneumoniae incubated overnight by broth microdilution method. It is filed as functional.
Data set [3] has as its system Mycobacterium tuberculosis. Kind of data set: Antimicrobial activity against Mycobacterium tuberculosis H37Rv incubated for 10 days by microbroth dilution method. To be noted: 240 h. The class given is functional.
Another data set deals with Mycobacterium avium. Kind of data set: Antimicrobial activity against Mycobacterium avium incubated for 10 days by microbroth dilution method. It is filed as functional. The following applies: 240 h.
The next data set concerns Mycolicibacter terrae. Kind of data set: Antimicrobial activity against Mycobacterium terrae incubated for 10 days by microbroth dilution method. It is filed as functional. To be noted: 240 h.
In data set [4] the test system is Escherichia coli. The experiment in a line: Antimicrobial activity against Escherichia coli NCTC 11954 incubated for 24 hrs by microbroth dilution method. It is filed as functional. The following applies: NCTC 11954, 24 h.
The test system of data set [5] is Escherichia coli. Kind of data set: Antimicrobial activity against Escherichia coli ATCC 8739 incubated for 24 hrs by microbroth dilution method. To be noted: ATCC 8739, 24 h. The class given is functional.
Data set [6] deals with Escherichia coli. Kind of data set: Antimicrobial activity against Escherichia coli O157:H7 incubated for 24 hrs by microbroth dilution method. It is filed as functional. To be noted: O157:H7, 24 h.
Data set [7] relates to Escherichia coli. The experiment in a line: Antimicrobial activity against nalidixic acid-resistant Escherichia coli clinical isolate incubated for 24 hrs by microbroth dilution method. The class given is functional.
The test system of a further data set is Salmonella enterica. Kind of data set: Antimicrobial activity against Salmonella enterica ATCC 13312 incubated for 24 hrs by microbroth dilution method. It is filed as functional. To be noted: ATCC 13312, 24 h.
The subject of a further data set is Pseudomonas aeruginosa. Kind of data set: Antimicrobial activity against Pseudomonas aeruginosa ATCC 9627 incubated for 24 hrs by microbroth dilution method. The following applies: ATCC 9627, 24 h. The class given is functional.
Data set [8] concerns Staphylococcus aureus. Kind of data set: Antimicrobial activity against Staphylococcus aureus ATCC 33591 incubated for 24 hrs by microbroth dilution method. It is filed as functional. The following applies: ATCC 33591, 24 h.
Data set [9] has as its system Staphylococcus aureus. Kind of data set: Antimicrobial activity against Staphylococcus aureus ATCC 9253 incubated for 24 hrs by microbroth dilution method. To be noted: ATCC 9253, 24 h. The class given is functional.
Another data set deals with Listeria monocytogenes. The experiment in a line: Antimicrobial activity against Listeria monocytogenes ATCC 19115 incubated for 24 hrs by microbroth dilution method. To be noted: ATCC 19115, 24 h. It is filed as functional.
Another data set concerns Candida albicans. Kind of data set: Antimicrobial activity against Candida albicans ATCC 10231 after 24 hrs by microbroth dilution method. The class given is functional. The following applies: ATCC 10231, 24 h.
A further data set deals with Aspergillus flavus. The experiment in a line: Antimicrobial activity against Aspergillus flavus ATCC 9643 after 48 hrs by microbroth dilution method. To be noted: ATCC 9643, 48 h. The class given is functional.
The test system of another data set is Stachybotrys chartarum. Kind of data set: Antimicrobial activity against Stachybotrys chartarum IBT 7711 after 48 hrs by microbroth dilution method. The following applies: IBT 7711, 48 h. The class given is functional.
The subject of another data set is Penicillium chrysogenum. Kind of data set: Antimicrobial activity against Penicillium chrysogenum ATCC 10106 after 48 hrs by microbroth dilution method. To be noted: ATCC 10106, 48 h. The class given is functional.

Converted amounts (≈) assume the structure as drawn. Bounds are passed on as bounds.

On to `O=C(CSc1nnc(CN2CCN(c3cc4c(cc3F)c(=O)c(C(=O)O)cn4C3CC3)CC2)o1)c1ccc(Cl)cc1`, for which the inhibition of growth at 50 µM in the data set with HL-60, with HeLa and in the data set with B16 was 100% in each case. Further, the inhibition at 50 µM in data set [1] turned out to be 100%.
As for `C[C@H]1Cn2cc(C(=O)NCCC(=O)NCCC[C@@H]3NC(=O)[C@H](CCCNC(=N)N)NC(=O)[C@H](CCCNC(=N)N)NC(=O)[C@H](CCCNC(=N)N)NC(=O)[C@@H](Cc4c[nH]c5ccccc45)NC(=O)[C@H](Cc4c[nH]c5ccccc45)NC(=O)[C@H](Cc4c[nH]c5ccccc45)NC(=O)[C@H](Cc4c[nH]c5ccccc45)NC(=O)[C@H](CCCNC(=N)N)NC3=O)c(=O)c3cc(F)c(N4CCN(C)CC4)c(c32)O1`, the MIC (in general, the smallest concentration in the dilution series that meets the test's criterion for growth inhibition) in the data set on Staphylococcus aureus [2] is 32 µg/mL (≈ 16.9 µM); in the data set on Klebsiella pneumoniae it was greater than 128 µg/mL.
Regarding `CCOc1cccc2cc(-c3cc4c(cc3F)c(=O)c(C(=O)O)cn4CC)c(=O)oc12`, the results for the MIC (in data set [3]; in the data set on Mycobacterium avium; against Mycolicibacter terrae) were 1.5 µg/mL (≈ 3.54 µM), 1.5 µg/mL (≈ 3.54 µM) and 0.7 µg/mL (≈ 1.65 µM), respectively.
For the compound `C[C@H]1Cn2cc(C(=O)NCCC(=O)NCCC[C@@H]3NC(=O)[C@H](CCCNC(=N)N)NC(=O)[C@H](CCCNC(=N)N)NC(=O)[C@H](CCCNC(=N)N)NC(=O)[C@@H](Cc4c[nH]c5ccccc45)NC(=O)[C@H](Cc4c[nH]c5ccccc45)NC(=O)[C@H](Cc4c[nH]c5ccccc45)NC(=O)[C@H](Cc4c[nH]c5ccccc45)NC(=O)[C@H](CCCNC(=N)N)NC3=O)c(=O)c3cc(F)c(F)c(c32)O1`, the minimum inhibitory concentration (MIC) against Staphylococcus aureus [2] was 8 µg/mL (≈ 4.4 µM); in the data set on Klebsiella pneumoniae it was 32 µg/mL (≈ 17.6 µM).
For `COc1c(N2CCN(C)CC2)c(F)cc2c(=O)c(C(=O)N[C@H]3[C@H](O)[C@@H](O)[C@H](CO)[C@H](O)[C@@H]3O)cn(C3CC3)c12`, the MIC worked out at 159 µM (≈ 87.5 µg/mL) in the data set on Escherichia coli [4]; 318 µM (≈ 175 µg/mL) against Escherichia coli [5]; 39.7 µM (≈ 21.9 µg/mL) in the data set with Escherichia coli [6]; 636 µM (≈ 350 µg/mL) in the data set with Escherichia coli [7]; 159 µM (≈ 87.5 µg/mL) with Salmonella enterica; 19.9 µM (≈ 11 µg/mL) in the data set with Pseudomonas aeruginosa. Besides, the minimal inhibitory concentration (MIC) was 159 µM (≈ 87.5 µg/mL) in the data set on Staphylococcus aureus [8]; 159 µM (≈ 87.5 µg/mL) with Staphylococcus aureus [9]; 636 µM (≈ 350 µg/mL) in the data set on Listeria monocytogenes; less than 9.9 µM with Candida albicans; 636 µM (≈ 350 µg/mL) with Aspergillus flavus; 636 µM (≈ 350 µg/mL) in the data set with Stachybotrys chartarum.
Turning to `COC[C@@H]1[C@H](OC(C)=O)[C@H](OC(C)=O)[C@@H](NC(=O)c2cn(C3CC3)c3c(OC)c(N4CCN(C)CC4)c(F)cc3c2=O)[C@H](OC(C)=O)[C@H]1OC(C)=O`, the minimum inhibitory concentration (MIC) in the data set on Penicillium chrysogenum amounted to 445 µM (≈ 326 µg/mL); against Escherichia coli [4], 111 µM (≈ 81.6 µg/mL); in the data set with Escherichia coli [5], 445 µM (≈ 326 µg/mL); in the data set on Escherichia coli [6] it was 55.7 µM (≈ 40.8 µg/mL); with Escherichia coli [7], 445 µM (≈ 326 µg/mL); in the data set on Salmonella enterica it was 890 µM (≈ 652 µg/mL). The minimal inhibitory concentration (MIC) against Pseudomonas aeruginosa came out at 111 µM (≈ 81.6 µg/mL); in the data set on Staphylococcus aureus [8], 111 µM (≈ 81.6 µg/mL); against Staphylococcus aureus [9], 55.7 µM (≈ 40.8 µg/mL); in the data set on Listeria monocytogenes it was 111 µM (≈ 81.6 µg/mL); with Candida albicans it was 223 µM (≈ 163 µg/mL); against Aspergillus flavus, 55.7 µM (≈ 40.8 µg/mL). The MIC with Stachybotrys chartarum was determined as 445 µM (≈ 326 µg/mL).
In the case of `C[C@H]1Cn2cc(C(=O)NCCC(=O)NCCCCC[C@@H](N)C(=O)N[C@@H](CCCNC(=N)N)C(=O)N[C@@H](CCCNC(=N)N)C(=O)N[C@@H](CCCNC(=N)N)C(=O)N[C@@H](CCCNC(=N)N)C(=O)N[C@@H](Cc3c[nH]c4ccccc34)C(=O)N[C@@H](CCCNC(=N)N)C(=O)N[C@@H](Cc3c[nH]c4ccccc34)C(=O)N[C@@H](Cc3c[nH]c4ccccc34)C(=O)O)c(=O)c3cc(F)c(N4CCN(C)CC4)c(c32)O1`, the minimal inhibitory concentration (MIC) against Staphylococcus aureus [2] is 64 µg/mL (≈ 33.4 µM); with Klebsiella pneumoniae, greater than 128 µg/mL.

The record behind these values is ChEMBL document CHEMBL4602605, “Fluoroquinolones structural and medicinal developments (2013-2018): Where are we now?” (Bioorg Med Chem, 2019).
